# Laboratory results: article PMC7071059, “Targeting Receptor Tyrosine Kinase VEGFR-2 in Hepatocellular Cancer: Rational Design, Synthesis and Biological Evaluation of 1,2-Disubstituted Benzimidazoles” (Molecules, 2020)
# Assays:
# HepG2 cell line = assay: In vitro cytotoxic activity, Sulfo-Rhodamine-B (SRB) assay; type: cell-based, human; settings: Homo sapiens, HepG2, 48 h, SRB assay, 48 h; mean of three independent experiments; read-out: IC50 (μM) on HepG2 Cell Line
# RXF 393 = assay: NCI 60 one dose (10 μM) anticancer assay; type: cell-based; settings: Homo sapiens, 10 µM one dose, Renal Cancer, read-out: Growth Inhibition % RXF 393
# Procedure: (§1) Some of the synthesized compounds were selected by the NCI, Bethesda, MD, USA for evaluation of their anticancer activity. An in vitro one dose (10 μM) anticancer assay was conducted on a full NCI 60-cell line panel derived from 9 different cancer types. Table 2 presents the percent of growth inhibition of some cell lines. […] K-562 and MOLT-4 from leukemia, NCI-H522 from non-small cell lung cancer, HCT-116 from colon cancer, SK-MEL-5 and UACC-62 from melanoma, UO-31 from renal cancer, PC-3 from prostate cancer and HS 578T and T-47D from breast cancer are the most sensitive cell lines to the tested compounds. No growth inhibition was observed from the selected compounds against COLO205, HCC-2998, MALME-3M, SK-MEL-28, DU-145 and BT-549 cell lines. […] Against UO-31 from renal cancer and PC-3 from prostate cancer, it inhibited the growth of 44% and 58% of the cancer cells, respectively.
# UACC-62 = assay: NCI 60 one dose (10 μM) anticancer assay; type: cell-based; settings: Homo sapiens, 10 µM one dose, Melanoma, read-out: Growth Inhibition % UACC-62
# Procedure: as §1
# HT29 = assay: NCI 60 one dose (10 μM) anticancer assay; type: cell-based; settings: Homo sapiens, HT-29; 10 µM one dose; Colon Cancer; read-out: Growth Inhibition % HT29
# Procedure: as §1
# TK-10 = assay: NCI 60 one dose (10 μM) anticancer assay; type: cell-based; settings: Homo sapiens, 10 µM one dose, Renal Cancer, read-out: Growth Inhibition % TK-10
# Procedure: as §1
# SNB-19 = assay: NCI 60 one dose (10 μM) anticancer assay; type: cell-based; settings: Homo sapiens, 10 µM one dose, CNS Cancer, read-out: Growth Inhibition % SNB-19
# Procedure: as §1
# PC-3 = assay: NCI 60 one dose (10 μM) anticancer assay; type: cell-based; settings: Homo sapiens, 10 µM one dose, Prostate Cancer, read-out: Growth Inhibition % PC-3
# Procedure: as §1
# OVCAR-5 = assay: NCI 60 one dose (10 μM) anticancer assay; type: cell-based; settings: Homo sapiens, 10 µM one dose, Ovarian Cancer, read-out: Growth Inhibition % OVCAR-5
# Procedure: as §1
# HCT-116 = assay: NCI 60 one dose (10 μM) anticancer assay; type: cell-based; settings: Homo sapiens, 10 µM one dose, Colon Cancer, read-out: Growth Inhibition % HCT-116
# Procedure: as §1
# OVCAR-8 = assay: NCI 60 one dose (10 μM) anticancer assay; type: cell-based; settings: Homo sapiens, 10 µM one dose, Ovarian Cancer, read-out: Growth Inhibition % OVCAR-8
# Procedure: as §1
# NCI-H226 = assay: NCI 60 one dose (10 μM) anticancer assay; type: cell-based; settings: Homo sapiens, 10 µM one dose, Non-small cell lung Cancer, read-out: Growth Inhibition % NCI-H226
# Procedure: as §1
# K-562 = assay: NCI 60 one dose (10 μM) anticancer assay; type: cell-based; settings: Homo sapiens, K562; 10 µM one dose; Leukemia; read-out: Growth Inhibition % K-562
# Procedure: as §1
# M14 = assay: NCI 60 one dose (10 μM) anticancer assay; type: cell-based; settings: Homo sapiens, 10 µM one dose, Melanoma, read-out: Growth Inhibition % M14
# Procedure: as §1
# 786-0 = assay: NCI 60 one dose (10 μM) anticancer assay; type: cell-based; settings: Homo sapiens, 10 µM one dose, Renal Cancer, read-out: Growth Inhibition % 786-0
# Procedure: as §1
# MDA-MB-435 = assay: NCI 60 one dose (10 μM) anticancer assay; type: cell-based; settings: Homo sapiens, 10 µM one dose, Melanoma, read-out: Growth Inhibition % MDA-MB-435
# Procedure: as §1
# HCT-15 = assay: NCI 60 one dose (10 μM) anticancer assay; type: cell-based; settings: Homo sapiens, 10 µM one dose, Colon Cancer, read-out: Growth Inhibition % HCT-15
# Procedure: as §1
# NCI-H460 = assay: NCI 60 one dose (10 μM) anticancer assay; type: cell-based; settings: Homo sapiens, 10 µM one dose, Non-small cell lung Cancer, read-out: Growth Inhibition % NCI-H460
# Procedure: as §1
# MCF7 = assay: NCI 60 one dose (10 μM) anticancer assay; type: cell-based; settings: Homo sapiens, 10 µM one dose, Breast Cancer, read-out: Growth Inhibition % MCF7
# Procedure: as §1
# NCI/ADR-RES = assay: NCI 60 one dose (10 μM) anticancer assay; type: cell-based; settings: Homo sapiens, 10 µM one dose, Ovarian Cancer, read-out: Growth Inhibition % NCI/ADR-RES
# Procedure: as §1
# KM12 = assay: NCI 60 one dose (10 μM) anticancer assay; type: cell-based; settings: Homo sapiens, 10 µM one dose, Colon Cancer, read-out: Growth Inhibition % KM12
# Procedure: as §1
# CAK1-1 = assay: NCI 60 one dose (10 μM) anticancer assay; type: cell-based; settings: 10 µM one dose; Renal Cancer; read-out: Growth Inhibition % CAK1-1
# Procedure: as §1
# LOX IMVI = assay: NCI 60 one dose (10 μM) anticancer assay; type: cell-based; settings: Homo sapiens, 10 µM one dose, Melanoma, read-out: Growth Inhibition % LOX IMVI
# Procedure: as §1
# HOP-62 = assay: NCI 60 one dose (10 μM) anticancer assay; type: cell-based; settings: Homo sapiens, 10 µM one dose, Non-small cell lung Cancer, read-out: Growth Inhibition % HOP-62
# Procedure: as §1
# T-47D = assay: NCI 60 one dose (10 μM) anticancer assay; type: cell-based; settings: Homo sapiens, T47D; 10 µM one dose; Breast Cancer; read-out: Growth Inhibition % T-47D
# Procedure: as §1
# MDA-MB-231/ATTC = assay: NCI 60 one dose (10 μM) anticancer assay; type: cell-based; settings: Homo sapiens, 10 µM one dose, Breast Cancer, read-out: Growth Inhibition % MDA-MB-231/ATTC
# Procedure: as §1
# MDA-MB-468 = assay: NCI 60 one dose (10 μM) anticancer assay; type: cell-based; settings: Homo sapiens, 10 µM one dose, Breast Cancer, read-out: Growth Inhibition % MDA-MB-468
# Procedure: as §1
# NCI-H522 = assay: NCI 60 one dose (10 μM) anticancer assay; type: cell-based; settings: Homo sapiens, 10 µM one dose, Non-small cell lung Cancer, read-out: Growth Inhibition % NCI-H522
# Procedure: as §1
# HL-60(TB) = assay: NCI 60 one dose (10 μM) anticancer assay; type: cell-based; settings: Homo sapiens, 10 µM one dose, Leukemia, read-out: Growth Inhibition % HL-60(TB)
# Procedure: as §1
# MOLT-4 = assay: NCI 60 one dose (10 μM) anticancer assay; type: cell-based; settings: Homo sapiens, 10 µM one dose, Leukemia, read-out: Growth Inhibition % MOLT-4
# Procedure: as §1
SMILES,IC50 (HepG2 cell line),inhibition at 10 µM (RXF 393),inhibition at 10 µM (UACC-62),inhibition at 10 µM (HT29),inhibition at 10 µM (TK-10),inhibition at 10 µM (SNB-19),inhibition at 10 µM (PC-3),inhibition at 10 µM (OVCAR-5),inhibition at 10 µM (HCT-116),inhibition at 10 µM (OVCAR-8),inhibition at 10 µM (NCI-H226),inhibition at 10 µM (K-562),inhibition at 10 µM (M14),inhibition at 10 µM (786-0),inhibition at 10 µM (MDA-MB-435),inhibition at 10 µM (HCT-15),inhibition at 10 µM (NCI-H460),inhibition at 10 µM (MCF7),inhibition at 10 µM (NCI/ADR-RES),inhibition at 10 µM (KM12),also measured
"Cc1ccc(-c2nc3ccccc3n2CC(=O)N/N=C/c2cccc(OCc3ccccc3)c2)o1 [Compound 17b, (E)-N′-(3-(Benzyloxy)benzylidene)-2-(2-(5-methylfuran-2-yl)-1H-benzo[d]imidazol-1-yl)acetohydrazide]",10 µM,40%,29%,29%,10%,21%,46%,14%,32%,26%,25%,54%,24%,26%,21%,35%,27%,48%,29%,23%,inhibition at 10 µM (CAK1-1): 33%; inhibition at 10 µM (LOX IMVI): 23%; inhibition at 10 µM (HOP-62): 15%; inhibition at 10 µM (T-47D): 49%; inhibition at 10 µM (MDA-MB-231/ATTC): 25%; inhibition at 10 µM (MDA-MB-468): 20%; inhibition at 10 µM (NCI-H522): 28%; inhibition at 10 µM (HL-60(TB)): 50%; inhibition at 10 µM (MOLT-4): 58%; melting point: 180 to 182 °C
"COc1cc(/C=N/NC(=O)Cn2c(C(C)C)nc3ccccc32)ccc1OCc1ccccc1 [Compound 17e, (E)-N′-(4-(Benzyloxy)-3-methoxybenzylidene)-2-(2-isopropyl-1H-benzo[d]imidazol-1-yl)acetohydrazide]",24.1 µM,< 10%,22%,< 10%,< 10%,< 10%,20%,< 10%,< 10%,< 10%,< 10%,25%,< 10%,< 10%,< 10%,< 10%,< 10%,< 10%,< 10%,< 10%,inhibition at 10 µM (CAK1-1): < 10%; inhibition at 10 µM (LOX IMVI): < 10%; inhibition at 10 µM (HOP-62): < 10%; inhibition at 10 µM (T-47D): 27%; inhibition at 10 µM (MDA-MB-231/ATTC): < 10%; inhibition at 10 µM (MDA-MB-468): < 10%; inhibition at 10 µM (NCI-H522): 32%; inhibition at 10 µM (HL-60(TB)): < 10%; inhibition at 10 µM (MOLT-4): 22%; melting point: 180 to 182 °C
